Each structure is given as a SMILES string.

For one data set, the target named is T1, Broad substrate specificity ATP-binding cassette transporter ABCG2 (Homo sapiens, UniProt Q9UNQ0).
T1 sequence (Q9UNQ0 whole entry): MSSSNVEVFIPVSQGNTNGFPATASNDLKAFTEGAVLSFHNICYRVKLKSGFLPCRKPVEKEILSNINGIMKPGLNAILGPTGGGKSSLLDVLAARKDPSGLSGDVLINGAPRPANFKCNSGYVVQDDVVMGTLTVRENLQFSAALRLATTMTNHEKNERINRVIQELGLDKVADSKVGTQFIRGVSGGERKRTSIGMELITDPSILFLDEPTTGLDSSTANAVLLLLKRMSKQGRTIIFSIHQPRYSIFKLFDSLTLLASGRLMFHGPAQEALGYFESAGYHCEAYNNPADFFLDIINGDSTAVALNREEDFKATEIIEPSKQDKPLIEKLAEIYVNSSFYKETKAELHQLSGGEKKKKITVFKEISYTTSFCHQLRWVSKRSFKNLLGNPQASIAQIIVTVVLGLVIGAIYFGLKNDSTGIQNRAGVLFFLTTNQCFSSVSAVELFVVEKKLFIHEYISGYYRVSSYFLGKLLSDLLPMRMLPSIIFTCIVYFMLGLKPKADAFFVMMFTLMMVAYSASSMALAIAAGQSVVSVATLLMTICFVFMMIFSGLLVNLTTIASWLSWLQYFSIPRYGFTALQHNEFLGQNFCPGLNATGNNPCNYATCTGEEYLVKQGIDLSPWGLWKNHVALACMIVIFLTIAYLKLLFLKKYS
Nature of the data set: Inhibition of ABCG2 in human mitoxantrone-resistant MCF7 cells by Hoechst 33342 assay using one phase exponential association analysis. In kind it is cell-based.
Conditions: not given; call rule not given here
Regarding `O=C(Nc1ccccc1C(=O)Nc1ccc(CCN2CCc3ccccc3C2)cc1)c1cnc2ccccc2c1`, the IC50 – broadly, the concentration needed to halve the response being measured – was 0.676 µM.

The target of another data set is T1, Broad substrate specificity ATP-binding cassette transporter ABCG2. Nature of the data set: Inhibition of ABCG2 in human mitoxantrone-resistant MCF7 cells by Hoechst 33342 assay using linear regression analysis. In kind it is cell-based.
Conditions: not given
Regarding `O=C(Nc1ccccc1C(=O)Nc1ccc(CCN2CCc3ccccc3C2)cc1)c1cnc2ccccc2c1`, the concentration for half-maximal inhibition (IC50) is 0.832 µM.

The next data set has the same target. Nature of the data set: Inhibition of ABCG2 in human mitoxantrone-resistant MCF7 cells at 5.6 uM by Hoechst 33342 assay. It counts as cell-based. As to conditions: mcf7, 5.6 µM.
Consider `O=C(Nc1ccccc1C(=O)Nc1ccc(CCN2CCc3ccccc3C2)cc1)c1cnc2ccccc2c1`, for which the result was Active.

For the next data set, the target named is ATP-dependent translocase ABCB1 (Homo sapiens, UniProt P08183). The experiment in a line: Inhibition of P-gp in human adriamycin-resistant A2780 cells by Hoechst 33342 assay.
Sequence of ATP-dependent translocase ABCB1 (P08183 whole entry): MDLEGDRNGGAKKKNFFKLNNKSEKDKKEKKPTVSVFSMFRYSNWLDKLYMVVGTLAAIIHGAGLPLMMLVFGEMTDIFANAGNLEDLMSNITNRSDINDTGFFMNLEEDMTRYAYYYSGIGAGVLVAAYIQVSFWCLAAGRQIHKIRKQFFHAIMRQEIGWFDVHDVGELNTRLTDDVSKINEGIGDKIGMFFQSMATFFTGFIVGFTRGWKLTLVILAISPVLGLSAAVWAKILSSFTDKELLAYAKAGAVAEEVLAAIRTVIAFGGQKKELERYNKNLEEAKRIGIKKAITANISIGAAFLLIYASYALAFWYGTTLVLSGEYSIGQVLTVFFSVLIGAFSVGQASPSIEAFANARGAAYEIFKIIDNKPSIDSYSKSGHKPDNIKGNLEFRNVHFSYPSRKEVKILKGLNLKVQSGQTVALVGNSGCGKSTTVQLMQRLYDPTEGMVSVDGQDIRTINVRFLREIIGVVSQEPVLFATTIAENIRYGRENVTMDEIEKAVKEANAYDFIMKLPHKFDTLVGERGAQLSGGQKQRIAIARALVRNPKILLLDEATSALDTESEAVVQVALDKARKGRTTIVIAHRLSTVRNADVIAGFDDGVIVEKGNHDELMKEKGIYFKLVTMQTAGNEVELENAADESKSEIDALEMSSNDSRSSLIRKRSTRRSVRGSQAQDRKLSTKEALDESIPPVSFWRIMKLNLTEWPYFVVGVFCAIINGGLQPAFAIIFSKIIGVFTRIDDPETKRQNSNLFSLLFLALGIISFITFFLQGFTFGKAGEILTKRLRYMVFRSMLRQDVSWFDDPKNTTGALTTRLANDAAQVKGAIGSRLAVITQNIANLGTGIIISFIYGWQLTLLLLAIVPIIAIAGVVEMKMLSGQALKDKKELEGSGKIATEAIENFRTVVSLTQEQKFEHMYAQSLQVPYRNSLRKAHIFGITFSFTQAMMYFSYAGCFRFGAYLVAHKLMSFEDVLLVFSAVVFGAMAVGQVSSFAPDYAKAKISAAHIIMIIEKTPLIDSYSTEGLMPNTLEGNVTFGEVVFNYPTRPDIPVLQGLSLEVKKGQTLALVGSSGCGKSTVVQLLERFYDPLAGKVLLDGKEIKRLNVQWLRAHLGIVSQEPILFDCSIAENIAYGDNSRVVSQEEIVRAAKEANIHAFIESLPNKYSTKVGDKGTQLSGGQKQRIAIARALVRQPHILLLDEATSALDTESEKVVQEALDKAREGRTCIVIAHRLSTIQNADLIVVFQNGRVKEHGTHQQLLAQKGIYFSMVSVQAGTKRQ
Conditions: not given
In kind it is cell-based.
`COc1cc2c(cc1OC)CN(CCc1ccc(NC(=O)C3Oc4ccccc4O3)cc1)CC2` showed an IC50 of 1.41 µM.

The molecule `COc1cc2c(cc1OC)CN(CCc1ccc(NC(=O)c3ccccc3)cc1)CC2` showed an IC50 of 4.79 µM.

`COc1cc2c(cc1OC)CN(CCc1ccc(NC(=O)c3cc(OC)c(OC)cc3NC(=O)c3cnc4ccccc4c3)cc1)CC2` showed an IC50 of 0.0724 µM.

In the next data set the target is T1, Broad substrate specificity ATP-binding cassette transporter ABCG2. Nature of the data set: Inhibition of ABCG2 in human mitoxantrone-resistant MCF7 cells by Hoechst 33342 assay.
Conditions: not given
In kind it is cell-based.
As to `COc1cc2c(cc1OC)CN(CCc1ccc(NC(=O)c3cnc4ccccc4c3)cc1)CC2`, the IC50 is 24 µM. In other words, the double-digit micromolar range.

On to `COc1cc2c(cc1OC)CN(CCc1ccc(NC(=O)c3ccccc3Br)cc1)CC2`, for which the half-maximal inhibitory concentration (IC50) is 21.9 µM.

Take `COc1cc2c(cc1OC)CN(CCc1ccc(NC(=O)c3cccc(Br)c3)cc1)CC2`: the IC50 is 22.9 µM.

For the molecule `COc1cc2c(cc1OC)CN(CCc1ccc(NC(=O)c3ccccc3N)cc1)CC2`, the IC50 is 85.1 µM.

On to `Nc1ccc(C(=O)Nc2ccc(CCN3CCc4ccccc4C3)cc2)cc1`, for which the IC50 was 77.6 µM.

In the case of `COc1cc2c(cc1OC)CN(CCc1ccc(NC(=O)c3ccccc3NC(=O)c3cnc4ccccc4c3)cc1)CC2`, the IC50 was 5.01 µM.

For `COc1cc2c(cc1OC)CN(CCc1ccc(NC(=O)c3cccnc3)cc1)CC2`, the IC50 was 44.7 µM.

`COc1ccc(CCN(C)CCCC(C#N)(c2ccc(OC)c(OC)c2)C(C)C)cc1OC` (stereo unspecified) gave an IC50 of 525 µM. This IC50 is about 12-fold higher than that of the molecule before.

For `CC(=O)[C@H]1CC[C@H]2[C@@H]3CCC4=CC(=O)CC[C@]4(C)[C@H]3CC[C@]12C` [PROGESTERONE], the IC50 is 126 µM.

As for `COc1cc2c(cc1OC)CN(CCc1ccc(NC(=O)c3ccc4ccccc4c3)cc1)CC2`, the IC50 was 7.24 µM.

Molecule `COc1cc2c(cc1OC)CN(CCc1ccc(NC(=O)c3ccc4ncccc4c3)cc1)CC2` showed an IC50 of 14.5 µM.

As to `COc1ccc(C(=O)Nc2ccccc2C(=O)Nc2ccc(CCN3CCc4cc(OC)c(OC)cc4C3)cc2)cc1OC`, the IC50 is 2.09 µM.

`COc1cc2c(cc1OC)CN(CCc1ccc(NC(=O)c3cc(OC)c(OC)cc3[N+](=O)[O-])cc1)CC2` had an IC50 of 64.6 µM.

In the case of `O=C(Nc1ccccc1C(=O)Nc1ccc(CCN2CCc3ccccc3C2)cc1)c1cnc2ccccc2c1`, the IC50 is 1 µM.

Molecule `COc1cc2c(cc1OC)CN(CCc1ccc(NC(=O)c3ccc(Br)cc3)cc1)CC2` showed an IC50 of 11.5 µM.

`Nc1ccccc1C(=O)Nc1ccc(CCN2CCc3ccccc3C2)cc1` gave an IC50 of 74.1 µM.

As for `COc1cc2c(cc1OC)CN(CCc1ccc(NC(=O)c3cc4ccccc4cn3)cc1)CC2`, the IC50 was 6.03 µM.

In turn, `COc1ccc([C@@H]2Sc3ccccc3N(CCN(C)C)C(=O)[C@@H]2OC(C)=O)cc1` [DILTIAZEM] gave an IC50 of 851 µM. This IC50 is about 140-fold higher than that of the molecule before.

The molecule `COc1ccc(C(=O)Nc2ccc(CCN3CCc4cc(OC)c(OC)cc4C3)cc2)cc1OC` gave an IC50 of 47.9 µM.

With `COc1cc2c(cc1OC)CN(CCc1ccc(NC(=O)c3ccccc3[N+](=O)[O-])cc1)CC2`, the IC50 is 110 µM. Against the preceding molecule, the IC50 is about 2.3-fold higher.

As to `O=C(Nc1ccc(CCN2CCc3ccccc3C2)cc1)c1cnc2ccccc2c1`, the IC50 was 5.01 µM. This IC50 lies about 22-fold lower than the previous one.

As for `COc1cc2c(cc1OC)CN(CCc1ccc(NC(=O)c3ccnc4ccccc34)cc1)CC2`, the IC50 was 36.3 µM.

The molecule `COc1cc2c(cc1OC)CN(CCc1ccc(NC(=O)c3cccc4ccccc34)cc1)CC2` showed an IC50 of 12.9 µM.

Consider `COc1cc2c(cc1OC)CN(CCc1ccc(NC(=O)C3Oc4ccccc4O3)cc1)CC2`, for which the IC50 is 15.1 µM.

In turn, `COc1cc2c(cc1OC)CN(CCc1ccc(NC(=O)c3ccc([N+](=O)[O-])cc3)cc1)CC2` showed an IC50 of 7.59 µM.

In turn, `COc1cc2c(cc1OC)CN(CCc1ccc(NC(=O)c3ccc(N)cc3)cc1)CC2` had an IC50 of 263 µM.

As for `COc1cc2c(cc1OC)CN(CCc1ccc(NC(=O)c3ccccc3NC(=O)c3ccccc3)cc1)CC2`, the IC50 is 3.98 µM.

The molecule `O=C(Nc1ccc(CCN2CCc3ccccc3C2)cc1)c1ccc([N+](=O)[O-])cc1` gave an IC50 of 6.61 µM.

With `COC(=O)C1=C(C)NC(C)=C(C(=O)OCCN(C)Cc2ccccc2)C1c1cccc([N+](=O)[O-])c1` (stereo unspecified) [NICARDIPINE], the IC50 was 16.6 µM.

Molecule `O=C(Nc1ccc(CCN2CCc3ccccc3C2)cc1)c1ccccc1[N+](=O)[O-]` had an IC50 of 79.4 µM.

Regarding `COc1cc2c(cc1OC)CN(CCc1ccc(NC(=O)c3cnc4ccccc4n3)cc1)CC2`, the IC50 was 6.03 µM. Against the preceding molecule, the IC50 is about 13-fold lower.

`COc1cc2c(cc1OC)CN(CCc1ccc(NC(=O)c3ccccc3)cc1)CC2` gave an IC50 of 24.5 µM.

For `COc1cc2c(cc1OC)CN(CCc1ccc(NC(=O)c3cc(OC)c(OC)cc3NC(=O)c3cnc4ccccc4c3)cc1)CC2`, the IC50 was 1.45 µM.

The molecule `COc1cc2c(cc1OC)CN(CCc1ccc(NC(=O)c3ccccc3NC(=O)c3ccc(C)cc3)cc1)CC2` had an IC50 of 3.89 µM. Compared with the last molecule, the IC50 is about 2.7-fold higher.

Consider `COC(=O)[C@H]1[C@H]2C[C@@H]3c4[nH]c5cc(OC)ccc5c4CCN3C[C@H]2C[C@@H](OC(=O)c2cc(OC)c(OC)c(OC)c2)[C@@H]1OC` [RESERPINE], for which the IC50 is 26.3 µM. This IC50 is about 6.8-fold higher than that of the molecule before.

For the origin of these results see ChEMBL document CHEMBL1156730, “Structure-activity relationships of new inhibitors of breast cancer resistance protein (ABCG2)” (Bioorg Med Chem, 2008).
